Patent US20260234130A1, “EP2 Antagonist Compounds” (Reservoir Neuroscience, Inc., priority 2022, published 2026)

Biological target: T1, EP2 receptor (Homo sapiens, UniProt P43116)
T1 construct: expressed in transfected cells; host or cells: CHO-K1 cells (ATCC), transient transfection with FuGENE 6
Test: EP2 potency assay (cAMP TR-FRET, LANCE Ultra cAMP kit) in transfected CHO-K1 cells stimulated with PGE2 at EC80
Type: cell-based
Details: Table (IV), EP2 antagonism, CHO-K1 cells expressing EP2, PGE2 at EC80
Description: Compound potency was measured using a cAMP TR-FRET assay. CHO-K1 cells (ATCC) were seeded at a density of 9.75×105 in 6 cm plates, and then on the following day cell media was changed to Opti-Mem I reduced serum media (Gibco), and transfected with a plasmid for expression of the EP2 receptor (the target receptor of interest), using the FuGENE 6 Transfection reagent (Promega). After 6 hours incubation, the cell media was replaced with F12 medium supplemented with 10% FBS and 100 U/ml Pen-Strep. 24 hours after transfection, cells were harvested and seeded at a density of 3000 cells/well in a 384 well plate to perform the cAMP assay, using the LANCE Ultra cAMP assay kit (PerkinElmer). For each test compound of interest, 10 nl/well of serially diluted test compound was added to each well, resulting in a range of 10 serially diluted compound concentrations from 10000 nM to 0.038 nM, with duplicate wells for each concentration. Plates were then centrifuged at 1000 rpm for 1 min, agitated at 600 rpm at R.T. for 2 min, and incubated at 25° C. for 5 min. The reference agonist, prostaglandin E2 (MCE), was added to each well at the appropriate concentration to reach its EC80 value. Plates were then centrifuged at 1000 rpm for 1 min, agitated at 600 rpm at R.T. for 2 min, and incubated at 25° C. for 30 min. To measure levels of cAMP, 5 μl/well of Eu-cAMP working solution and 5 μl/well of Ulight-anti-cAMP working solution were added to each well, and the plate was centrifuged at 1000 rpm for 1 min, agitated at 600 rpm at R.T. for 2 min, and incubated at 25° C. for 15 min. Levels of TR-FRET fluorescence were measured in each well using an EnVision microplate reader (excitation wavelength=337 nm and emission wavelength=615 and 665 nm). A dose-response curve was prepared by plotting percent inhibition for each compound concentration, and then IC50 was calculated by fitting a curve to the plotted values and extrapolating the IC50 concentration. […] Potency data is grouped into categories of AA (IC50<100 nM); A (IC50=100 to 500 nM); B (IC50=500 nM to […]); C (IC50=1 μM to 5 μM); and D (IC50>5 μM).

T1 sequence (P43116 whole entry): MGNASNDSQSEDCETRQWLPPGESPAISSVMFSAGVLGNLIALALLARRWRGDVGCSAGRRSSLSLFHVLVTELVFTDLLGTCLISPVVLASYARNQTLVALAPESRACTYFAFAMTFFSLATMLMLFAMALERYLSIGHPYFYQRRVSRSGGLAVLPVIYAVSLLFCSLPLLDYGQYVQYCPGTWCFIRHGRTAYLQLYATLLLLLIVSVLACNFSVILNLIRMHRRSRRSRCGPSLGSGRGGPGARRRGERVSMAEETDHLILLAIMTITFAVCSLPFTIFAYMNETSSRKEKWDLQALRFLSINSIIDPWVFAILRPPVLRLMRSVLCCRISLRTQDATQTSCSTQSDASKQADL

Row | Compound | IC50
1 | COc1ccc(C(N2CCC(COc3ccc(-c4ccc(C#N)cc4)cc3)(C(=O)O)C2)C(F)(F)F)cc1 (centres unmarked) [I-2, 3-(((4′-cyano-[1,1′-biphenyl]-4-yl)oxy)methyl)-1-(2,2,2-trifluoro-1-(4-methoxyphenyl)ethyl)pyrrolidine-3-carboxylic acid] | > 5 µM
2 | COc1ccc(C(=O)N2CCC(COc3ccc(C45CC(C#N)(C4)C5)cc3)(C(=O)O)C2)cc1 (centres unmarked) [I-6, 3-((4-(3-cyanobicyclo[1.1.1]pentan-1-yl)phenoxy)methyl)-1-(4-methoxybenzoyl)pyrrolidine-3-carboxylic acid] | < 0.1 µM
3 | COc1ccc(C(=O)N2CCC(COc3ccc(C45CC(C4)C5)cc3)(C(=O)O)C2)cc1 (centres unmarked) [I-7, 3-((4-(bicyclo[1.1.1]pentan-1-yl)phenoxy)methyl)-1-(4-methoxybenzoyl)pyrrolidine-3-carboxylic acid] | 0.1 to 0.5 µM
4 | COc1ccc(C(=O)N2CCC(COc3ccc(C45CC(C(N)=O)(C4)C5)cc3)(C(=O)O)C2)cc1 (centres unmarked) [I-8, 3-(4-{3-carbamoylbicyclo[1.1.1]pentan-1-yl}phenoxymethyl)-1-(4-methoxybenzoyl)pyrrolidine-3-carboxylic acid] | 0.1 to 0.5 µM
5 | COc1ccc(C(=O)N2CCC(COc3ccc(-c4ccc(C#N)cc4)cc3)(S(C)(=N)=O)C2)cc1 (centres unmarked) [I-9, 4′-((1-(4-methoxybenzoyl)-3-(S-methylsulfonimidoyl)pyrrolidin-3-yl)methoxy)-[1,1′-biphenyl]-4-carbonitrile] | > 5 µM
6 | COc1ccc(C(=O)N2CCC(COc3ccc(-c4ccc(C#N)cc4)cc3)(S(=O)(=O)NS(C)(=O)=O)C2)cc1 (centres unmarked) [I-10, 3-(((4′-cyano-[1,1′-biphenyl]-4-yl)oxy)methyl)-1-(4-methoxybenzoyl)-N-(methylsulfonyl)pyrrolidine-3-sulfonamide] | > 5 µM
7 | COc1ccc(C(=O)N2CCC(COc3ccc(C45CC(C(=O)O)(C4)C5)cc3)(C(=O)O)C2)cc1 (centres unmarked) [I-11, 3-((4-(3-carboxybicyclo[1.1.1]pentan-1-yl)phenoxy)methyl)-1-(4-methoxybenzoyl)pyrrolidine-3-carboxylic acid] | > 5 µM
8 | COc1ccc(C(=O)N2CCC(COc3ccc(-c4ccc(C#N)cc4)cc3)(C(O)C(F)(F)F)C2)cc1 (centres unmarked) [I-12, 4′-((1-(4-methoxybenzoyl)-3-(2,2,2-trifluoro-1-hydroxyethyl)pyrrolidin-3-yl)methoxy)-[1,1′-biphenyl]-4-carbonitrile] | > 5 µM
9 | COc1ccc(C(=O)N2CCC(COc3ccc(-c4ccc(C#N)cc4)cc3)(C(O)(O)C(F)(F)F)C2)cc1 (centres unmarked) [I-13, 4′-((1-(4-methoxybenzoyl)-3-(2,2,2-trifluoro-1,1-dihydroxyethyl)pyrrolidin-3-yl)methoxy)-[1,1′-biphenyl]-4-carbonitrile] | > 5 µM
10 | COc1ccc(C(=O)N2CCC(COc3ccc(Br)cc3)(C(O)C(F)(F)F)C2)cc1 (centres unmarked) [I-14, (3-((4-bromophenoxy)methyl)-3-(2,2,2-trifluoro-1-hydroxyethyl)pyrrolidin-1-yl)(4-methoxyphenyl)methanone] | > 5 µM

Same assay, conditions: Table (V), EP2 antagonism, CHO-K1 cells expressing EP2, PGE2 at EC80

Row | Compound | IC50
11 | Fc1ccc2c(ccn2-c2cc(Cl)c3c(c2)CN(Cc2cnc(OCC(F)(F)F)nc2)CCO3)c1 [II-1, 9-chloro-7-(5-fluoro-1H-indol-1-yl)-4-((2-(2,2,2-trifluoroethoxy)pyrimidin-5-yl)methyl)-2,3,4,5-tetrahydrobenzo [f][1,4]oxazepine] | > 5 µM
12 | Cn1cc(-c2ncc(CN3CCOc4c(Cl)cc(-n5ccc6cc(F)ccc65)cc4C3)cn2)cn1 [II-2, 9-chloro-7-(5-fluoro-1H-indol-1-yl)-4-((2-(1-methyl-1H-pyrazol-4-yl)pyrimidin-5-yl)methyl)-2,3,4,5-tetrahydrobenzo[f][1,4] oxazepine] | 1 to 5 µM
13 | COc1ncc(CN2CCOc3c(Cl)cc(N4CCN(C)c5cc(F)ccc54)cc3C2)cn1 [II-3, 9-chloro-7-(6-fluoro-4-methyl-3,4-dihydroquinoxalin-1(2H)-yl)-4-((2-methoxypyrimidin-5-yl)methyl)-2,3,4,5-tetrahydrobenzo[f][1,4] oxazepine] | > 5 µM
14 | O=c1ncc(CN2CCOc3c(Cl)cc(-n4ccc5cc(F)c(F)cc54)cc3C2)c[nH]1 [II-4, 5-((9-chloro-7-(5,6-difluoro-1H-indol-1-yl)-2,3-dihydrobenzo[f][1,4]oxazepin-4(5H)-yl)methyl)pyrimidin-2(1H)-one] | 1 to 5 µM
15 | Cc1ncc(CN2CCOc3c(Cl)cc(-n4ccc5cc(F)ccc54)cc3C2)cn1 [II-5, 9-chloro-7-(5-fluoro-1H-indol-1-yl)-4-((2-methylpyrimidin-5-yl)methyl)-2,3,4,5-tetrahydrobenzo[f][1,4] oxazepine] | 0.1 to 0.5 µM
16 | N#Cc1ncc(CN2CCOc3c(Cl)cc(-n4ccc5cc(F)ccc54)cc3C2)cn1 [II-6, 5-((9-chloro-7-(5-fluoro-1H-indol-1-yl)-2,3-dihydrobenzo[f][1,4]oxazepin-4(5H)-yl)methyl)pyrimidine-2-carbonitrile] | 0.5 to 1 µM
17 | Fc1ccc2c(ccn2-c2cc(Cl)c3c(c2)CN(Cc2cnc(-n4cccn4)nc2)CCO3)c1 [II-7, 4-((2-(1H-pyrazol-1-yl)pyrimidin-5-yl)methyl)-9-chloro-7-(5-fluoro-1H-indol-1-yl)-2,3,4,5-tetrahydrobenzo[f][1,4] oxazepine] | 1 to 5 µM
18 | Fc1ccc2c(ccn2-c2cc(Cl)c3c(c2)CN(Cc2cnc(C(F)(F)F)nc2)CCO3)c1 [II-8, 9-chloro-7-(5-fluoro-1H-indol-1-yl)-4-((2-(trifluoromethyl)pyrimidin-5-yl)methyl)-2,3,4,5-tetrahydrobenzo[f][1,4] oxazepine] | 1 to 5 µM
19 | Fc1ccc2c(ccn2-c2cc(Cl)c3c(c2)CN(Cc2cncnc2)CCO3)c1 [II-9, 9-chloro-7-(5-fluoro-1H-indol-1-yl)-4-(pyrimidin-5-ylmethyl)-2,3,4,5-tetrahydrobenzo[f][1,4] oxazepine] | 0.1 to 0.5 µM
20 | COc1ncc(CN2CCOc3c(Cl)cc(-n4ccc5cc(C6CC6)ccc54)cc3C2)cn1 [II-10, 9-chloro-7-(5-cyclopropyl-1H-indol-1-yl)-4-((2-methoxypyrimidin-5-yl)methyl)-2,3,4,5-tetrahydrobenzo[f][1,4] oxazepine] | > 5 µM
21 | Nc1ncc(CN2CCOc3c(Cl)cc(-n4ccc5cc(F)ccc54)cc3C2)c(N)n1 [II-11, 5-((9-chloro-7-(5-fluoro-1H-indol-1-yl)-2,3-dihydrobenzo[f][1,4]oxazepin-4(5H)-yl)methyl)pyrimidin-2,4-diamine] | 0.1 to 0.5 µM
22 | CS(=O)(=O)Nc1ncc(CN2CCOc3c(Cl)cc(-n4ccc5cc(F)ccc54)cc3C2)cn1 [II-13] | 1 to 5 µM
23 | CC(=O)Nc1ncc(CN2CCOc3c(Cl)cc(-n4ccc5cc(F)ccc54)cc3C2)cn1 [II-14, N-(5-((9-chloro-7-(5-fluoro-1H-indol-1-yl)-2,3-dihydrobenzo[f][1,4]oxazepin-4(5H)-yl)methyl)pyrimidin-2-yl)acetamide] | 1 to 5 µM
24 | O=C(O)c1ccc(CN2CCOc3c(Cl)cc(-n4ccc5cc(F)ccc54)cc3C2)cn1 [II-15, 5-((9-chloro-7-(5-fluoro-1H-indol-1-yl)-2,3-dihydrobenzo[f][1,4]oxazepin-4(5H)-yl)methyl)picolinic acid] | < 0.1 µM
25 | Nc1ncc(CN2CCOc3c(Cl)cc(-n4ccc5cc(F)ccc54)cc3C2)c(=O)[nH]1 [II-16, 2-amino-5-((9-chloro-7-(5-fluoro-1H-indol-1-yl)-2,3-dihydrobenzo[f][1,4]oxazepin-4(5H)-yl)methyl)pyrimidin-4(3H)-one] | > 5 µM
26 | N#CCc1ncc(CN2CCOc3c(Cl)cc(-n4ccc5cc(F)ccc54)cc3C2)cn1 [II-17, 2-(5-((9-chloro-7-(5-fluoro-1H-indol-1-yl)-2,3-dihydrobenzo[f][1,4]oxazepin-4(5H)-yl)methyl)pyrimidin-2-yl)acetonitrile] | 0.1 to 0.5 µM
27 | COC(=O)c1ccc(CN2CCOc3c(Cl)cc(-n4ccc5cc(F)ccc54)cc3C2)cn1 [II-19, methyl 5-((9-chloro-7-(5-fluoro-1H-indol-1-yl)-2,3-dihydrobenzo[f][1,4]oxazepin-4(5H)-yl)methyl)picolinate] | 0.1 to 0.5 µM
28 | COCCc1ncc(CN2CCOc3c(Cl)cc(-n4ccc5cc(F)ccc54)cc3C2)cn1 [II-20, 9-chloro-7-(5-fluoro-1H-indol-1-yl)-4-((2-(2-methoxyethyl)pyrimidin-5-yl)methyl)-2,3,4,5-tetrahydrobenzo[f][1,4]oxazepine] | 0.5 to 1 µM
29 | Fc1ccc2c(ccn2-c2cc(Cl)c3c(c2)CN(Cc2cnc(C4CC4)nc2)CCO3)c1 [II-21, 9-chloro-4-((2-cyclopropylpyrimidin-5-yl)methyl)-7-(5-fluoro-1H-indol-1-yl)-2,3,4,5-tetrahydrobenzo[f][1,4]oxazepine] | 0.5 to 1 µM
